According to PMC10703812, “Understanding the molecular mechanisms of odorant binding and activation of the human OR52 family” (Nature Communications, 2023):
Where “and” joins values, the source holds several entries; their conditions need not be identical. Equal values may be shown once.

How the values were obtained:
[1] = test system: pcDNA (Null) Hana3A cells; test: cAMP signaling assay, no receptor (Null / pcDNA); type: cell-based; parameters: cAMP response: unit not given here; conditions: single experiments; for cAMP response: Fig.S11a source data
Experimental: (§1) Hana3A cells were seeded on 96-well white microplates and transfected with OR52cs or the corresponding mutants and cAMP sensor (Promega). The medium was exchanged with CO2-independent medium (Gibco) supplemented with 0.375 mg ml^−1 D-luciferin (Nanolight) 48 h after infection, and cells were incubated in the dark at 20 °C for 2 h. Basal luminescence was detected using a Tristar 2 LB 942 multimode reader (Berthold) until it reached a plateau. Subsequently, various concentrations of odorants and forskolin (Sigma-Aldrich) were added to each well, and luminescence was measured again. Data were analyzed and plotted using GraphPad Prism 9.4.1.

[2] = test system: OR52cs; test: cAMP signaling assay (cAMP sensor) in Hana3A cells; type: cell-based, human
Experimental: For cAMP assay, CRE luciferase assay, and surface ELISA, the full-length OR52cs construct was cloned into the pcDNA3.1 vector. The Lucy signal sequence and FLAG peptide sequence were added to the N-terminus. Mutant constructs were generated by site-directed mutagenesis. For BRET assay, eYFP was added at the C-terminus of OR52cs with a GGGGS linker. Rluc was added to Gα for resonance partner (after L99 for Gαs, and I100 for Gαolf, respectively, with GGGGS linker back and forth). […]
as §1

[3] = test system: OR52cs Y282A; test: cAMP signaling assay, mutant; type: cell-based, human; conditions: odorant 0.001 M; Fig.S13b source data, single experiments
Experimental: (§2) For cAMP assay, CRE luciferase assay, and surface ELISA, the full-length OR52cs construct was cloned into the pcDNA3.1 vector. The Lucy signal sequence and FLAG peptide sequence were added to the N-terminus. Mutant constructs were generated by site-directed mutagenesis. For BRET assay, eYFP was added at the C-terminus of OR52cs with a GGGGS linker. Rluc was added to Gα for resonance partner (after L99 for Gαs, and I100 for Gαolf, respectively, with GGGGS linker back and forth).
as §1

[4] = test system: OR52cs V158F/V209M; test: cAMP signaling assay, mutant; type: cell-based, human; conditions: for cAMP response: Fig.S8b source data, single experiments
Experimental: as §2, §1

[5] = test system: OR52cs R265A; test: cAMP signaling assay, mutant; type: cell-based, human
Experimental: as §2, §1

[6] = test system: OR52cs H183A; test: cAMP signaling assay, mutant; type: cell-based, human; conditions: for cAMP response: Fig.3d source data, single experiments
Experimental: as §2, §1

[7] = test system: OR52cs H107A; test: cAMP signaling assay, mutant; type: cell-based, human
Experimental: as §2, §1

[8] = test system: OR52cs V158F; test: cAMP signaling assay, mutant; type: cell-based, human; conditions: for cAMP response: Fig.S8b source data, single experiments
Experimental: as §2, §1

[9] = test system: OR52cs F14A / F96A / F170A; test: cAMP signaling assay, mutant; type: cell-based, human
Experimental: as §2, §1

[10] = test system: OR52cs G201V; test: cAMP signaling assay, mutant; type: cell-based, human; conditions: Fig. 3d
Experimental: as §2, §1

[11] = test system: OR52cs R265A; test: CRE luciferase assay in Hana3A cells, mutant; type: cell-based, human; conditions: 100 µM carboxylic acid; Fig.S7a, single experiments
Experimental: as §2
48 h after infection, cells were treated with odorants and incubated at 37 °C for 4 h. […] All values were divided by the Renilla luciferase activity to normalize the effect of cell confluence. All data were analyzed using GraphPad Prism 9.4.1.

[12] = test system: OR52cs; test: CRE luciferase assay in Hana3A cells; type: cell-based, human; conditions: Fig.S7b, single experiments
Experimental: as §2
Hana3A cells were seeded on 96-well white microplates (SPL) and transfected with plasmids encoding CRE-luciferase, OR52cs or R265^6.59A mutant, Renilla luciferase, RTP1S, and Ric8b at a […] ratio 24 h after seeding. 48 h after infection, cells were treated with odorants and incubated at 37 °C for 4 h. Luminescence was measured using a Tristar 2 LB 942 multimode reader (Berthold). All values were divided by the Renilla luciferase activity to normalize the effect of cell confluence. All data were analyzed using GraphPad Prism 9.4.1.

[13] = test system: OR52cs D212A; test: cAMP signaling assay, mutant; type: cell-based, human; parameters: scale not given here; conditions: Fig.S13b source data, single experiments
Experimental: as §2, §1

Structure (SMILES): CCCCCCCC(=O)O [Octanoate, octanoic acid]
- cAMP response ([1]; odorant 9.18274e-8 M): 2.6643 and 2.911 and 3.873 and 3.399
- cAMP response ([1]; odorant 9.18274e-7 M): 2.569 and 3.588 and 3.415 and 3.589
- cAMP response ([1]; odorant 9.18274e-6 M): 2.895 and 3.57 and 4.047 and 4.019
- cAMP response ([1]; odorant 3.0303e-5 M): 3.574 and 3.7923 and 3.945 and 4.033
- cAMP response ([1]; odorant 0.0001 M): 3.1425 and 4.269 and 3.81 and 3.981
- cAMP response (raw signal) upon OCA treatment ([1]; odorant 0.001 M (1 mM OCA), Fig.S11a left, listed as Octanotae): 10538 and 15823 and 16065 and 17585
- cAMP response ([1]; odorant 0.001 M): 4.161 and 5.018 and 6.3304 and 6.191
- EC50 ([2]; Supplementary Fig. 13b): 7 µM
- X-fold over OR52cs (relative fold of EC50) ([2]; Supplementary Table 3): 1
- EC50 ([2]; Supplementary Table 3, N=5): 7.9 µM
- pEC50 ± SEM ([2]; Supplementary Table 3, N=5): 5.230 ± 0.107
- cAMP response ([2]; odorant 9.18274e-8 M, Fig.S11a source data, single experiments): 5.085 and 3.831 and 4.775 and 5.026
- cAMP response ([2]; odorant 9.18274e-7 M, Fig.S11a source data, single experiments): 14.274 and 13.5525 and 12.3756 and 13.817
- cAMP response ([2]; odorant 9.18274e-6 M, Fig.S11a source data, single experiments): 55.4145 and 67.6331 and 64.1017 and 55.2862
- cAMP response ([2]; odorant 3.0303e-5 M, Fig.S11a source data, single experiments): 86.9919 and 78.2813 and 84.5166 and 65.845
- cAMP response ([2]; odorant 0.0001 M, Fig.1a source data, single experiments): 127.982 and 109.844 and 107.02 and 115.524 and 104.582
- cAMP response ([2]; odorant 0.0001 M, Fig.S11a source data, single experiments): 98.5501 and 101.54 and 117.496 and 98.6522
- cAMP response (raw signal) upon OCA treatment ([2]; odorant 0.001 M (1 mM OCA), Fig.S11a left, single experiments, listed as Octanotae): 146668 and 160587 and 152997 and 131980
- cAMP response ([2]; odorant 0.001 M, Fig.1a source data, single experiments): 103.349 and 98.3823 and 101.697 and 99.3544 and 97.2175
- cAMP response ([2]; odorant 0.001 M, Fig.S11a source data, single experiments): 95.2215 and 104.803 and 111.594 and 89.2504
- cAMP response [3]: 0.7944 and 0.7429 and 0.9514
- response / preference (in words) ([4]; Supplementary Fig. 8): preference for OCA was maintained
- cAMP response ([4]; odorant 9.18274e-8 M): 1.119% and 0.2182% and 0.3359% and 1.739%
- cAMP response ([4]; odorant 9.18274e-7 M): 6.95% and 4.269% and 3.744% and 7.839% and 6.948%
- cAMP response ([4]; odorant 9.18274e-6 M): 37.3813% and 30.814% and 31.4615% and 45.1116% and 40.3488%
- cAMP response ([4]; odorant 3.0303e-5 M): 96.8852% and 89.0601% and 97.4121% and 90.3953% and 94.2682%
- cAMP response ([4]; odorant 0.0001 M): 87.6893% and 101.186% and 102.533% and 86.5504% and 88.6049%
- cAMP response ([4]; odorant 0.001 M): 79.2271% and 94.3185% and 104.414% and 103.193% and 74.9407%
- downstream signaling (in words) ([5]; Fig. 3d): complete loss of downstream signaling
- cAMP response ([5]; odorant 9.18274e-6 M, Fig.3d source data, single experiments): 1.026 and 1.808
- EC50 ([6]; Supplementary Table 3, N=3): 41.4 µM
- pEC50 ± SEM ([6]; Supplementary Table 3, N=3): 4.154 ± 0.087
- cAMP response ([6]; odorant 0.0001 M): 48.2985 and 50.8568 and 78.4687
- cAMP response ([6]; odorant 0.001 M): 61.0348 and 75.0061 and 91.5473
- downstream signaling (in words) ([7]; Fig. 3d): significantly reduced downstream signaling
- X-fold over OR52cs (relative fold of EC50) ([7]; Supplementary Table 3): 23.7
- EC50 ([7]; Supplementary Table 3, N=3): 187 µM
- cAMP response ([7]; odorant 9.18274e-7 M, Fig.3d source data, single experiments): 2.018 and 1.83 and 1.279
- downstream signal / selectivity (in words) ([8]; Supplementary Fig. 8): greatly reduced the downstream signal
- cAMP response ([8]; odorant 9.18274e-8 M): -0.2745% and -0.4519% and -0.2741%
- cAMP response ([8]; odorant 9.18274e-7 M): -1.206% and -1.168% and -3.0916%
- cAMP response ([8]; odorant 9.18274e-6 M): 1.8013% and 0.5178% and -1.853%
- cAMP response ([8]; odorant 3.0303e-5 M): 11.8948% and 7.17% and 7.559%
- cAMP response ([8]; odorant 0.0001 M): 32.9355% and 23.3075% and 28.8455%
- cAMP response ([8]; odorant 0.001 M): 85.6572% and 61.8428% and 79.0275%
- cAMP response (in words) ([9]; Fig. 2c): significantly reduced cAMP response
- X-fold over OR52cs (relative fold of EC50) ([9]; Supplementary Table 3): 26.3
- EC50 ([9]; Supplementary Table 3, N=3): 208 µM
- downstream signaling (in words) [10]: loss of OCA signaling
- relative fold (luciferase activity over DMSO) [11]: 1.143 fold and 0.8826 fold and 1.532 fold and 1.19 fold
- relative fold of CRE luciferase activity ([12]; odorant 10 μM): 1.744 fold and 2.175 fold and 2.388 fold and 2.247 fold
- relative fold of CRE luciferase activity ([12]; odorant 50 μM): 4.124 fold and 3.914 fold and 5.3918 fold and 4.986 fold
- relative fold of CRE luciferase activity ([12]; odorant 100 μM): 4.893 fold and 4.461 fold and 6.103 fold and 6.04 fold
- relative fold of CRE luciferase activity ([12]; odorant 250 μM): 5.851 fold and 4.875 fold and 6.831 fold and 6.812 fold
- relative fold of CRE luciferase activity ([12]; odorant 500 μM): 8.532 fold and 7.359 fold and 7.746 fold and 7.343 fold
- cAMP response ([13]; odorant 9.18274e-6 M): 0.5276 and 0.521 and 1.015
- cAMP response ([13]; odorant 3.0303e-5 M): 0.9753 and 0.9567 and 1.328
- cAMP response ([13]; odorant 0.0001 M): 4.038 and 3.668 and 3.274
- cAMP response ([13]; odorant 0.001 M): 42.8474 and 43.8072 and 40.1115
